Measured values reported in PubChem BioAssay AID1259407 (Chemical Carcinogenesis Research Information System (CCRIS), 2018).
Activity calls are given as the source filed them. No rule for the calls is given here.

System: CCRIS mutagenicity, Ames/micronucleus/aberration tests
Experiment: CCRIS mutagenicity studies
[1] = Test System: AMES SALMONELLA TYPHIMURIUM, Strain/Indicator: TA98, Metabolic Activation: NONE, Method: PREINCUBATION
[2] = Test System: AMES SALMONELLA TYPHIMURIUM, Strain/Indicator: TA98, Metabolic Activation: NONE, Method: STANDARD PLATE
[3] = Test System: AMES SALMONELLA TYPHIMURIUM, Strain/Indicator: TA100, Metabolic Activation: NONE, Method: STANDARD PLATE
[4] = Test System: AMES SALMONELLA TYPHIMURIUM, Strain/Indicator: TA1535, Metabolic Activation: NONE, Method: STANDARD PLATE
[5] = Test System: AMES SALMONELLA TYPHIMURIUM, Strain/Indicator: TA1537, Metabolic Activation: NONE, Method: STANDARD PLATE

For `O=[N+]([O-])c1ccc2ccc3c4ccccc4cc4ccc1c2c43`, the mutagenic call (Test System: AMES SALMONELLA TYPHIMURIUM, Strain/Indicator: TA98(1,8-DNP6), Metabolic Activation: NONE) was “active; positive”, the mutagenic call (Test System: AMES SALMONELLA TYPHIMURIUM, Strain/Indicator: TA98 (1,8-DNP6), Metabolic Activation: NONE, Method: STANDARD PLATE) was “active; positive” and the mutagenic call (Test System: AMES SALMONELLA TYPHIMURIUM, Strain/Indicator: TA98(NR), Metabolic Activation: NONE) was “active; positive”. The mutagenic call (Test System: AMES SALMONELLA TYPHIMURIUM, Strain/Indicator: TA98(NR), Metabolic Activation: NONE, Method: PREINCUBATION) was “active; positive”, the mutagenic call (Test System: AMES SALMONELLA TYPHIMURIUM, Strain/Indicator: TA98 (NR), Metabolic Activation: NONE, Method: STANDARD PLATE) was “inactive; negative” and the mutagenic call (Test System: AMES SALMONELLA TYPHIMURIUM, Strain/Indicator: TA98, Metabolic Activation: NONE) was “active; positive”. The mutagenic call (Test System: AMES SALMONELLA TYPHIMURIUM, Strain/Indicator: TA98, Metabolic Activation: NONE', Method: STANDARD PLATE) was “active; positive”, the mutagenic call [1] was “active; positive” and the mutagenic call [2] was “active; positive”. The mutagenic call (Test System: AMES SALMONELLA TYPHIMURIUM, Strain/Indicator: TA98, Metabolic Activation: NONE, Method: STANDARD PLATE (ANAEROBIC)) was “active; positive”, the mutagenic call (Test System: AMES SALMONELLA TYPHIMURIUM, Strain/Indicator: TA98, Metabolic Activation: RAT, LIVER, HEPATOCYTES, AROCLOR 1254) was “active; positive” and the mutagenic call (Test System: AMES SALMONELLA TYPHIMURIUM, Strain/Indicator: TA98, Metabolic Activation: RAT, LIVER, S-9, AROCLOR 1254) was “active; positive”. For the same compound, the mutagenic call [3] was “active; positive”, the mutagenic call (Test System: CHINESE HAMSTER OVARY, Strain/Indicator: CHO-K1-BH4 (HGPRT), Metabolic Activation: NONE) was “inactive; negative” and the mutagenic call (Test System: CHINESE HAMSTER OVARY, Strain/Indicator: CHO-K1-BH4 (HGPRT), Metabolic Activation: RAT, LIVER, S-9, 3-METHYLCHOLANTHRENE) was “active; positive”. The mutagenic call (Test System: CHO/HGPRT, Strain/Indicator: CHO-K1-BH4, Metabolic Activation: NONE) was “inactive; negative”, the mutagenic call (Test System: CHO/HGPRT, Strain/Indicator: CHO-K1-BH4, Metabolic Activation: RAT, LIVER, HEPATOCYTES) was “inactive; negative” and the mutagenic call (Test System: CHO/HGPRT, Strain/Indicator: CHO-K1-BH4, Metabolic Activation: RAT, LIVER, HEPATOCYTES, 3-METHYLCHOLANTHRENE) was “inactive; negative”. The mutagenic call (Test System: CHO/HGPRT, Strain/Indicator: CHO-K1-BH4, Metabolic Activation: RAT, LIVER, HEPATOCYTES, AROCLOR 1254) was “inactive; negative”, the mutagenic call (Test System: CHO/HGPRT, Strain/Indicator: CHO-K1-BH4, Metabolic Activation: RAT, LIVER, S-9) was “inactive; negative” and the mutagenic call (Test System: CHO/HGPRT, Strain/Indicator: CHO-K1-BH4, Metabolic Activation: RAT, LIVER, S-9, 3-METHYLCHOLANTHRENE) was “active; positive”. The mutagenic call (Test System: CHO/HGPRT, Strain/Indicator: CHO-K1-BH4, Metabolic Activation: RAT, LIVER, S-9, AROCLOR 1254) was “active; positive”.
`Cc1cccc(Nc2ccncc2S(=O)(=O)NC(=O)NC(C)C)c1` was tested, and the mutagenic call [2] was “inactive; negative”, the mutagenic call (Test System: AMES SALMONELLA TYPHIMURIUM, Strain/Indicator: TA98, Metabolic Activation: RAT, LIVER, S-9, Method: STANDARD PLATE) was “inactive; negative” and the mutagenic call [3] was “inactive; negative”. The mutagenic call (Test System: AMES SALMONELLA TYPHIMURIUM, Strain/Indicator: TA100, Metabolic Activation: RAT, LIVER, S-9, Method: STANDARD PLATE) was “inactive; negative”, the mutagenic call [4] was “inactive; negative” and the mutagenic call (Test System: AMES SALMONELLA TYPHIMURIUM, Strain/Indicator: TA1535, Metabolic Activation: RAT, LIVER, S-9, Method: STANDARD PLATE) was “inactive; negative”. For the same compound, the mutagenic call [5] was “inactive; negative”, the mutagenic call (Test System: AMES SALMONELLA TYPHIMURIUM, Strain/Indicator: TA1537, Metabolic Activation: RAT, LIVER, S-9, Method: STANDARD PLATE) was “inactive; negative” and the mutagenic call (Test System: E. COLI, Strain/Indicator: WP2 UVRA, Metabolic Activation: NONE, Method: STANDARD PLATE) was “inactive; negative”. The mutagenic call (Test System: E. COLI, Strain/Indicator: WP2 UVRA, Metabolic Activation: RAT, LIVER, S-9, Method: STANDARD PLATE) was “inactive; negative”.
For `O[C@@H]1[C@H]2O[C@H]2c2c(ccc3cc4ccc5ccccc5c4nc23)[C@H]1O`, the mutagenic call [1] was “active; positive”, the mutagenic call (Test System: AMES SALMONELLA TYPHIMURIUM, Strain/Indicator: TA100, Metabolic Activation: NONE, Method: PREINCUBATION) was “active; positive” and the mutagenic call (Test System: CHINESE HAMSTER V-79, Strain/Indicator: V-79/8-AZAGUANINE, Metabolic Activation: NONE, Method: STANDARD PLATE) was “active; positive”.
For `Fc1cnc2ccccc2c1`, the mutagenic call (End Point: In vitro Chromosomal aberrations, Test System: Chinese hamster lung fibroblast cells (CHL/IU), Metabolic Activation: Rat, liver, S-9) was “active; positive (information derived from a figure)”, the mutagenic call (End Point: In vitro Micronucleus, Test System: Chinese hamster lung fibroblast cells (CHL/IU), Metabolic Activation: Rat, liver, S-9) was “active; positive (information derived from a figure)” and the mutagenic call (Test System: AMES SALMONELLA TYPHIMURIUM, Strain/Indicator: TA100, Metabolic Activation: RAT LIVER S-9, PHENOBARBITAL AND 5,6-BENZOFLAVONE, Method: PREINCUBATION) was “inactive; negative”. For the same compound, the mutagenic call (Test System: AMES SALMONELLA TYPHIMURIUM, Strain/Indicator: TA100, Metabolic Activation: RAT, LIVER, S-9, AROCLOR 1254, Method: PREINCUBATION) was “inactive; negative”, the mutagenic call (Test System: AMES SALMONELLA TYPHIMURIUM, Strain/Indicator: TA100, Metabolic Activation: RAT, LIVER, S-9, PHENOBARBITAL AND 5,6-BENZOFLAVONE, Method: PREINCUBATION) was “inactive; negative” and the mutagenic call (Test System: AMES SALMONELLA TYPHIMURIUM, Strain/Indicator: TA100, Metabolic Activation: RAT, LIVER, S-9, PHENOBARBITAL AND 5,6-NAPHTHOFLAVONE, Method: PREINCUBATION) was “inactive; negative”. For the same compound, the mutagenic call (Test System: AMES SALMONELLA, Strain/Indicator: TA100, Metabolic Activation: RAT, LIVER, S-9, PHENOBARBITAL AND 5,6-BENZOFLAVONE, Method: PREINCUBATION) was “inactive; negative” and the mutagenic call (Test System: UDS RODENT HEPATOCYTES, Strain/Indicator: THY INCORP (NON-S-PHASE), Metabolic Activation: NONE, Method: AUTORADIOGRAPHY) was “inactive; negative”.
With `CNCCC=C1c2ccccc2CCc2ccccc21` the mutagenic call [2] was “inactive; negative”, the mutagenic call (Test System: AMES SALMONELLA TYPHIMURIUM, Strain/Indicator: TA98, Metabolic Activation: RAT, LIVER, S-9, AROCLOR 1254, Method: STANDARD PLATE) was “inactive; negative” and the mutagenic call [3] was “inactive; negative”. For the same compound, the mutagenic call (Test System: AMES SALMONELLA TYPHIMURIUM, Strain/Indicator: TA100, Metabolic Activation: RAT, LIVER, S-9, AROCLOR 1254, Method: STANDARD PLATE) was “inactive; negative”, the mutagenic call [4] was “inactive; negative” and the mutagenic call (Test System: AMES SALMONELLA TYPHIMURIUM, Strain/Indicator: TA1535, Metabolic Activation: RAT, LIVER, S-9, AROCLOR 1254, Method: STANDARD PLATE) was “inactive; negative”. For the same compound, the mutagenic call [5] was “inactive; negative” and the mutagenic call (Test System: AMES SALMONELLA TYPHIMURIUM, Strain/Indicator: TA1537, Metabolic Activation: RAT, LIVER, S-9, AROCLOR 1254, Method: STANDARD PLATE) was “inactive; negative”.
